Test results from publication PMC5816626, “A multitarget approach to drug discovery inhibiting Mycobacterium tuberculosis PyrG and PanK” (Scientific Reports, 2018).
Converted amounts (≈) assume the structure as drawn.

Assays:
Type in all cases: cell-based, Mycobacterium tuberculosis
[1] = system: M. tuberculosis 82.21 mutant (ethA Δ1283–4, coaA A620G (Q207R))
[2] = system: M. tuberculosis 88.1 mutant (coaA A620G (Q207R))
[3] = system: M. tuberculosis 88.2 mutant (coaA A620G (Q207R))
[4] = system: M. tuberculosis 88.3, 88.4, 88.5, 88.9, 88.11, 88.12 mutants (coaA A620G (Q207R))
[5] = system: M. tuberculosis 81.10 mutant (ethA Δ1109–1137)

Compound | MIC [1] | MIC [2] | MIC [3] | MIC [4] | MIC [5]
Cc1ccc(C(=O)Nc2ccc([N+](=O)[O-])cc2)s1 [compound 7947882, 5-methyl-N-(4-nitrophenyl)thiophene-2-carboxamide] | >40 µg/mL | 2.5 µg/mL (≈ 9.53 µM) | 2.5 µg/mL (≈ 9.53 µM) | 2.5 µg/mL (≈ 9.53 µM) | >40 µg/mL
CC1=CC=C(C(=O)Nc2ccc([N+](=O)[O-])cc2)S1(=O)=O [compound 11426026] | 2.5 µg/mL (≈ 8.5 µM) | 2.5 µg/mL (≈ 8.5 µM) | 2.5 µg/mL (≈ 8.5 µM) | 2.5 µg/mL (≈ 8.5 µM) | 1 µg/mL (≈ 3.4 µM)
O=C(CCc1ccccc1)NC(=S)Nc1ccc(N2CCCCC2)cc1 [compound 7904688, 3-phenyl-N-[(4-piperidin-1-ylphenyl)carbamothioyl]propanamide] | >40 µg/mL | 10 µg/mL (≈ 27.2 µM) | 10 µg/mL (≈ 27.2 µM) | 10 µg/mL (≈ 27.2 µM) | >40 µg/mL
CCc1cc(C(N)=S)ccn1 [Ethionamide, reference compound] | 10 µg/mL (≈ 60.2 µM) | 1 µg/mL (≈ 6.02 µM) | 1 µg/mL (≈ 6.02 µM) | 1 µg/mL (≈ 6.02 µM) | 10 µg/mL (≈ 60.2 µM)
